{
  "source": "patent US9079854B2",
  "about": "(priority 2007, dated 2015)",
  "key": {"[1]": {"test_system": "exploratory behavior", "experiment": "Open field chamber testing", "type": "in vivo, rat", "conditions": "15 mg/kg i.p.; versus vehicle; scored for 60 minutes; rats", "experimental": "The automated open-field chamber (Med Associates ENV-515 Test Environment, St. Albans, Vt.) 43.2×43.2×30.5 cm (L×W×H) equipped with three pairs of 16 infrared arrays that continually monitored the animal's movement was used to determine potential CNS effects of compound of Example 6 and the vehicle in naïve rats. Rats were individually tested 15 min after i.p. drug administration. The infrared beams were set 2.5 cm apart horizontally and at a height of 3 cm above the floor, with the rearing array set at 12 cm from the floor. The area in the box was divided into 4 equal quadrants (zones), with data collected within each quadrant and across quadrants (zone entries). An ambulatory movement was defined as a motion of at least 5 cm and was coded by quadrant. Vertical movements were counted when the rat moved vertically a minimum of 12 cm from the floor. Zone entries were defined as an entry into a zone (from another zone). Entry into a zone was counted when the rat was far enough into the zone to break 2 sets of photoelectric beams for the new zone beams during an ambulatory movement."}, "[2]": {"molecular_target": "T1, human CB2 (hCB2) receptor (Homo sapiens, UniProt P34972)", "T1 construct": "expressed in transfected cells; host or cells: CHO (Chinese hamster ovary) cells, membranes", "T1 sequence (P34972 whole entry)": "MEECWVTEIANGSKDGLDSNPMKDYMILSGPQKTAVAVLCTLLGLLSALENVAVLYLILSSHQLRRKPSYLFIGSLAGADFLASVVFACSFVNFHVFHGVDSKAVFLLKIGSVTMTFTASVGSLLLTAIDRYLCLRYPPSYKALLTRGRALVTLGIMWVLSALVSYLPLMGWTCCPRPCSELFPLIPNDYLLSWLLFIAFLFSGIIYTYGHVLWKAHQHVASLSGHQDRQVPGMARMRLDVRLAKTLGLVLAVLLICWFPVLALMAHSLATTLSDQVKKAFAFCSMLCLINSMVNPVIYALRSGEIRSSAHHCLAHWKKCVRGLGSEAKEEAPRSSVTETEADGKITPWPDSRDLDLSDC", "experiment": "CB2 binding assay, competitive binding of [3H]WIN 55212-2", "in_short": "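CHO cell membranes expressing hCB2 (15 μg protein) incubated 120 min at 37° C with 0.8 nM [3H]WIN 55212-2 in 50 mM HEPES/Tris pH 7.4, 5 mM MgCl2, 2.5 mM EGTA, 0.1% BSA; nonspecific binding with 10 μM WIN 55212-2. Filtration and scintillation counting; compounds at 1 μM, reported as % inhibition of control specific binding.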"}, "[3]": {"molecular_target": "CB1 (Homo sapiens, UniProt P21554)", "sequence (P21554 whole entry)": "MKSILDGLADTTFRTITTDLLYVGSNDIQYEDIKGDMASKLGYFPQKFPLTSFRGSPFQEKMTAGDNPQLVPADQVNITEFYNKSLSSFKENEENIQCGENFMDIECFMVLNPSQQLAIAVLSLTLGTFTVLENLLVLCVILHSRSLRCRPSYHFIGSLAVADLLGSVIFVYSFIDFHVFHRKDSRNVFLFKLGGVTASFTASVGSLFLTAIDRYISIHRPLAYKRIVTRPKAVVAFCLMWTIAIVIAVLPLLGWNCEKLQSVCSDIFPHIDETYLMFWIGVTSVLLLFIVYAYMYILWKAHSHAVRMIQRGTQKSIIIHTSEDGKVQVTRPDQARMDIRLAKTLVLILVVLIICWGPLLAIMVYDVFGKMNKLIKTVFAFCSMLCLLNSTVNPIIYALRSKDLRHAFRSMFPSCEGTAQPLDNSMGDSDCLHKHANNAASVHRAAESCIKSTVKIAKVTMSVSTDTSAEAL", "experiment": "CB1 functional assay, [35S]GTP-γ-S binding", "type": "biochemical", "parameters": "purchased ES-110-MG; host or cells: CHO membrane extracts"}, "[4]": {"molecular_target": "T2, hCB2 receptor (Homo sapiens, UniProt P34972)", "T2 construct": "purchased ES-111-MG; host or cells: CHO membrane extracts", "T2 sequence (P34972 whole entry)": "as the sequence (P34972 whole entry) above", "experiment": "CB2 functional assay, [35S]GTP-γ-S binding", "type": "biochemical"}, "[5]": {"conditions": "Table 7, relative to the efficacy of CP55940"}, "[6]": {"conditions": "Table 9, relative to the efficacy of CP 55,940"}},
  "note": "Entries after “also recorded” stand apart in the source; their conditions may differ. Where two headings read alike, the source gives them in different places.",
  "data": [
    {"smiles": "CCCCCCN1C(=O)/C(=N\\NC(=O)c2ccccc2)c2ccccc21", "note": "[Example 6, Benzoic acid [1-n-hexyl-2-oxo-1,2-dihydro-indol-3-ylidene]-hydrazide]", "values": [
      {"measurement": "exploratory behavior in the open field (distance traveled, ambulatory time, vertical activity, zone entries)", "setting": "[1]", "value": "No significant differences; also recorded: did not decrease the exploratory behavior"},
      {"measurement": "% Inhibition of Control Specific Binding", "setting": "[2]; CB2, Test Concentration 1.0E−05 (MD)", "value": 93, "unit": "%"},
      {"measurement": "% of Control Specific Binding 1st", "setting": "[2]; CB2, Test Concentration 1.0E−05 (MD), 1st determination", "value": "−1.5", "unit": "%"},
      {"measurement": "% of Control Specific Binding 2nd", "setting": "[2]; CB2, Test Concentration 1.0E−05 (MD), 2nd determination", "value": 15.9, "unit": "%"},
      {"measurement": "% of Control Specific Binding Mean", "setting": "[2]; CB2, Test Concentration 1.0E−05 (MD), mean", "value": 7.2, "unit": "%"},
      {"measurement": "% Inhibition of Control Specific Binding CB2", "setting": "[2]; Table 4, concentration not given", "value": 93, "unit": "%"},
      {"measurement": "inhibition at 1 µM", "setting": "[2]; read-out: % inhibition hCB2 receptor, at 1 μM, specific binding of [3H]-WIN55212-2, CHO membranes", "value": "92.8 ± 8.7", "unit": "%"},
      {"measurement": "inhibition at 10 µM", "setting": "[2]; read-out: % inhibition hCB2 receptor, at 10 μM, specific binding of [3H]-WIN55212-2", "value": "92.8 ± 8.7", "unit": "%"},
      {"measurement": "% Activation Average", "setting": "[3]; CB1 Functional Activity", "value": 59.65, "unit": "%"},
      {"measurement": "Compound Activity", "setting": "[3]; CB1 Functional Activity", "value": "Agonist"},
      {"measurement": "EC50", "setting": "[3]; CB1 Functional Activity, read-out: EC50 (nM) for GTP Binding", "value": 867, "unit": "nM"},
      {"measurement": "EC50", "setting": "[3]; Table 7, mean of two determinations, read-out: [35S]GTP-γ-S (hCB1) EC50 (nM ± SEM)", "value": "867 ± 1.1", "unit": "nM"},
      {"measurement": "Emax", "setting": "[3]; [5]", "value": 59.7, "unit": "%"},
      {"measurement": "EC50", "setting": "[3]; Table 9, mean of two determinations, read-out: [35S]GTP-γ-S hCB1 EC50 (nM ± SEM)", "value": "867 ± 1.1", "unit": "nM"},
      {"measurement": "Emax", "setting": "[3]; [6]", "value": 59.7, "unit": "%"},
      {"measurement": "% Activation Average", "setting": "[4]; CB2 Functional Activity", "value": 68.81, "unit": "%"},
      {"measurement": "Compound Activity", "setting": "[4]; CB2 Functional Activity", "value": "Agonist"},
      {"measurement": "EC50", "setting": "[4]; CB2 Functional Activity, read-out: EC50 (nM) for GTP Binding", "value": 63.4, "unit": "nM"},
      {"measurement": "ratio EC50(CB1)/EC50(CB2)", "setting": "[4]; CB2 receptor selectivity, [35S]GTP-γ-S", "value": 14},
      {"measurement": "EC50", "setting": "[4]; Table 7, mean of two determinations, read-out: [35S]GTP-γ-S (hCB2) EC50 (nM ± SEM)", "value": "63.4 ± 1.3", "unit": "nM"},
      {"measurement": "Emax", "setting": "[4]; [5]", "value": 68.8, "unit": "%"},
      {"measurement": "EC50", "setting": "[4]; Table 9, mean of two determinations, read-out: [35S]GTP-γ-S hCB2 EC50 (nM ± SEM)", "value": "63.4 ± 1.3", "unit": "nM"},
      {"measurement": "Emax", "setting": "[4]; [6]", "value": 68.8, "unit": "%"},
      {"measurement": "times less potent compared to the reference compound CP55,940", "setting": "[4]; functional activity, [35S]GTP-γ-S", "value": "seven"}
    ]}
  ]
}
